# Test results published in EP0346759A2, “Cholestadiene derivatives, process for their preparation, and their use as medicines with a HMG-CoA reductase-inhibiting activity” (HOECHST AKTIENGESELLSCHAFT, priority 1988, dated 1989).
# Tested on: Cholesterin-Biosynthese
# Assay: Inhibition of cholesterol biosynthesis in cell culture by 14C-precursor (14C sodium acetate) incorporation into cholesterol
# Type: cell-based
# Details: HEP-G2-Zellen, 1 % DMSO
# Source text: Prüfung auf Cholesterin-Biosynthese-Hemmung In Zellkulturen durch ^14C-Präkursoreinbau In Cholesterin.
# Monolayers von HEP G2-Zellen in lipoproteinfreiem Nährmedium wurden mit entsprechenden Konzentrationen der Prüfsubstanzen 1 Stunde vorinkubiert; nach Zugabe des ^14C-markierten Präkursors '^4C-Natriumacetat wurde die Inkubation für 3 Stunden fortgesetzt. Danach wurde ein Teil der Zellen bei vorheriger Zugabe eines internen Standards von ^3H-Cholesterin alkalisch verseift. Die Lipide der verseiften Zellen wurden mit Chloroform-Methanol extrahiert. Dieses Lipidgemisch wurde nach Zusatz von Träger-Cholesterin präparativ dünnschichtchromatographisch getrennt, die Cholesterin-Bande nach dem Sichtbarmachen mit Jod-Dämpfen isoliert und die aus dem ^14C-Präkursor gebildete Menge ^14C-Cholesterins szintigraphisch bestimmt. In einem aliquoten Teil der Zellen wurde Zellprotein bestimmt, sodaß die in der Zeiteinheit/mg Zellprotein aus ^14C-Präkursor gebildete Menge ^14C-Cholesterins berechnet werden kann. Zum Vergleich für die Hemmwirkung eines zugesetzten Prüfpräparates diente die Lösungsmittelkontrolle, sodaß direkt die Hemmung der Cholesterin-Biosynthese bei einer bestimmten molaren Konzentration des Prüfpräparates im Medium angegeben werden kann. In aliquoten Anteilen der Zellkultur wurde die Intaktheit der Zellkulturen und die fehlende Zellschädigung durch Präparate-Einwirkung morphologisch (Lichtmikroskop) beurteilt.
# Cholesterol-Biosynthese-Hemmung Zellkultur: HEP-G2-Zellen Lösungsmittel-Endkonzentration: 1 % DMSO
substance,measurement,setting,value
"3ß-Hydroxy-chola-5,23t-dien-24-carbonsäure-methylester [Beispiel 9]",IC50,Cholesterol-Biosynthese-Hemmung,~500 nM
same,Acetateinbau in Cholesterin im Vergleich zur Kontrolle,"Präparat-Konzentration 1,0 x 10^-6 Mol/1, 1 µM",52%
same,Acetateinbau in Cholesterin im Vergleich zur Kontrolle,"Präparat-Konzentration 1,0 x 10^-7 Mol/1, 0.1 µM",56%
same,Acetateinbau in Cholesterin im Vergleich zur Kontrolle,"Präparat-Konzentration 2,5 x 10^-4 Mol/1, 250 µM",6%
same,Acetateinbau in Cholesterin im Vergleich zur Kontrolle,"Präparat-Konzentration 2,5 x 10^-5 Mol/1, 25 µM",17%
